The target of data set [1] is T1, ABL1(H396P)-phosphorylated (Homo sapiens, UniProt P00519, H396P).
T1 construct: purchased DiscoveRx (KinomeScan service)
The data set can be described thus: KinomeScan profiling. It is filed as binding. The note with it: 1 µM CHMFL-074; read-out: % Control.

Data set [2] can be described thus: In vivo pharmacokinetics study. The settings on record: male, Sprague-Dawley, plasma, rat; for MRT inf: read-out: MRT(0-∞). As to the method:
The final concentration of the stock solution was 1 mg/mL for administration. […] Each time about 0.2 mL blood was collected through the jugular vein adding heparin for anticoagulation and kept on ice. Then plasma was separated by centrifugation at 8000 rpm for 6 minutes at 2–8°C. The obtained plasma was stored at −80°C before analysis. After finishing the test, all surviving animals will be transferred to the repository or euthanasia (CO2 asphyxiation).

For the next data set, the target named is T2, ABL1-phosphorylated (Homo sapiens, UniProt P00519).
T2 construct: purchased DiscoveRx (KinomeScan service)
In words: KinomeScan profiling. The data set is classed as binding. The settings on record: 1 µM CHMFL-074; read-out: % Control.

Data set [3] concerns K562, KU812 and MEG-01 cells. The data set can be described thus: Cell cycle analysis. It is filed as cell-based. The settings on record: K562 (24 h), KU812 (12 h), MEG-01 (24 h). As to the method:
K562, KU812 and MEG01 cells were treated with serially diluted CHMFL-074 for 12 or 24 hours. The cells were fixed in 70% cold ethanol and incubated at −20°C overnight, then stained with PI/RNase staining buffer (BD Pharmingen). Flow cytometry was performed using a FACS Calibur (BD), and results were analyzed by ModFit software.

The next data set concerns the target T3, KIT(L576P) (Homo sapiens, UniProt P10721, L576P).
T3 construct: purchased DiscoveRx (KinomeScan service)
In words: KinomeScan profiling. It is filed as binding. The settings on record: 1 µM CHMFL-074; read-out: % Control.

Here are results for 1 compound from paper PMC5216742, “Discovery and characterization of a novel potent type II native and mutant BCR-ABL inhibitor (CHMFL-074) for Chronic Myeloid Leukemia (CML)” (Oncotarget, 2016).

Like-named read-outs stand apart in the source and are kept apart here.

T3 sequence (P10721 26-976 L576P): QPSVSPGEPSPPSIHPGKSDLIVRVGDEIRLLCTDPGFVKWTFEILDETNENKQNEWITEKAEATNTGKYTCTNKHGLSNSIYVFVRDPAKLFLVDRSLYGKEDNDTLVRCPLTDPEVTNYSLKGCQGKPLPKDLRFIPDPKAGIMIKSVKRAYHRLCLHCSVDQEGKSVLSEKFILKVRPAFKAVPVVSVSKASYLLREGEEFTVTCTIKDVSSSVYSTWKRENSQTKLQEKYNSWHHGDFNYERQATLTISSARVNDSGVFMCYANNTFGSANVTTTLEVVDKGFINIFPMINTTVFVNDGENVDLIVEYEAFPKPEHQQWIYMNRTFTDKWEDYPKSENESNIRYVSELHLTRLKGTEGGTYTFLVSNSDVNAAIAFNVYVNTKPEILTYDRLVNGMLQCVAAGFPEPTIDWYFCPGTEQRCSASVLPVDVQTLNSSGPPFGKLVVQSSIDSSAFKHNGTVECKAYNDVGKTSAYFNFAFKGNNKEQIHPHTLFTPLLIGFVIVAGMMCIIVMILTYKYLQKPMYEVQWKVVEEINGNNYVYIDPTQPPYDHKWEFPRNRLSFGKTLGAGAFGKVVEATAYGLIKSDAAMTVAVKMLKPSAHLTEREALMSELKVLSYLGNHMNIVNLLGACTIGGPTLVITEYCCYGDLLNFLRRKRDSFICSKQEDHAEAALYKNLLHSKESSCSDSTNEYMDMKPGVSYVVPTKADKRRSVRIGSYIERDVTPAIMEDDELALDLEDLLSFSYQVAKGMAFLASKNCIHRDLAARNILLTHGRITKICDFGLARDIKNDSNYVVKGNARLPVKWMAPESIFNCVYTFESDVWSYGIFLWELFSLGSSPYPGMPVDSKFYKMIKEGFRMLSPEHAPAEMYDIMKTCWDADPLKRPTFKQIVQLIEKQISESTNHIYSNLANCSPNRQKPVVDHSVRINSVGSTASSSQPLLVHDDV

As for `Cc1ccc(NC(=O)c2ccc(CN3CCN(C)CC3)c(C(F)(F)F)c2)cc1OC1CCN(C(=O)c2cccnc2)CC1` [CHMFL-074], the remaining binding at 1 µM in data set [1] is 0.3%. In addition, in data set [2] (IV 1mg/kg, mean), the AUC(0-inf) (as a rule, total exposure, with the tail of the curve extrapolated) was determined as 340 ng·h/mL; the AUC(0-t) (commonly the area under the concentration-time curve up to a stated or last time point) is 337 ng·h/mL; the highest level (Cmax) was 739 ng/mL; the time to peak (Tmax) (as a rule, the time at which the peak concentration occurs) was 0.02 h. For the same compound, in data set [2] (IV 1mg/kg, mean), the half-life (as a rule, the time needed for the level to fall by half in the phase considered) is 1.23 h and the MRT inf turned out to be 1.29 h. The clearance in data set [2] (IV 1mg/kg, mean, read-out: CLz (converted)) is 49.3 mL/min/kg. Also, in data set [2] (IV 1mg/kg, mean, read-out: Vz), the Vd was 5.25 L/kg. Further, in data set [2] (PO 10 mg/kg, mean), the area under the curve AUC(0-inf) stood at 1460 ng·h/mL, the exposure AUC(0-t) was found to be 1130 ng·h/mL, the peak level (Cmax) was 190 ng/mL and the time of peak concentration (Tmax) is 4 h. Besides, in data set [2] (PO 10 mg/kg, mean), the half-life was 3.38 h and the MRT inf amounted to 6.58 h. In data set [2] (PO 10 mg/kg, read-out: F (bioavailability)), the bioavailability (commonly the share of a dose that reaches the circulation, judged against a reference dose that is usually intravenous) was found to be 42.9%. The remaining binding at 1 µM on ABL1-phosphorylated is 0.2%. In data set [3], the “concentration inducing G0/G1 phase cell cycle arrest” value is not below 0.3 µM. Besides, the remaining binding at 1 µM on KIT(L576P) worked out at 1%.
